# Publication PMC7796187, “New Bioactive Peptides Identified from a Tilapia Byproduct Hydrolysate Exerting Effects on DPP-IV Activity and Intestinal Hormones Regulation after Canine Gastrointestinal Simulated Digestion” (Molecules, 2020)
# Where a SMILES comes first, the peptide text is derived from it. Where no end group is shown, it is not given here.
# Tested on: STC-1 cells
# Test: Active GLP-1 secretion in STC-1 cells, radioimmunoassay of supernatant
# Format: cell-based
# Details: 1 mM, 2 h, versus buffer control
# Experimental: The Caco-2 cell line was purchased from Sigma-Aldrich (Villefranche-sur-Saône, France) and the STC-1 cell line was a grateful gift received from Corinne Grangette (Univ. Lille, CNRS, Inserm, CHU Lille, Institut Pasteur de Lille, U1019-UMR 8204-CIIL, France). Cells were grown in flask of 75 cm^2 at 37 °C, 5% CO2 atmosphere in DMEM supplemented with 4.5 g L^−1 of glucose, 10% of fetal bovine serum, 100 U mL^−1 of penicillin, 100 µg mL^−1 of streptomycin and 2 mM of L-glutamine. Caco-2 and STC-1 cells were weekly and twice a week subcultured, respectively. All cells used in this study were between the 40 and the 50 passages for Caco-2 cells and between the 10 and 30 passages for STC-1 cells.
# When 80–90% confluence was reached, STC-1 cells were trypsinized and seeded at a density of 40,000 cells/well in 24-wells culture plates (ThermoFisher Scientific, Saint Aubin, France) allowing to reach 60–80% confluence. Cell culture medium was removed from each well and cells were washed with phosphate saline buffer (PBS, 10 mM, pH 7.4). 250 µL of digests (2 to 10 mg mL^−1) or synthetic peptides (1 mM) diluted in Hepes buffer (4.5 mM KCl, 1.2 mM CaCl2, 140 mM NaCl and 20 mM Hepes, pH 7.4) were then added. Hepes buffer was used as a negative control. […]
row,Molecule,active GLP-1 release stimulation by synthetic peptide
1,ELLK,did not lead to GLP-1 secretion
2,LKPT,able to significantly stimulate active-GLP-1 release

# Biological target: T1, Caco-2 DPP-IV activity (Homo sapiens, UniProt P27487)
# T1 construct: In situ method using confluent Caco-2 cells described by Caron et al. was slightly modified and used to study DPP-IV activity; host or cells: Caco-2 cells, live and confluent, 7 days after seeding
# Test: In situ DPP-IV activity inhibition using live confluent Caco-2 cells (Gly-Pro-AMC substrate)
# Format: cell-based
# Details: synthetic peptides identified in basolateral side, read-out: In Situ IC50 (DPP-IV inhibitory activity)
# Experimental: Cells were grown in flask of 75 cm^2 at 37 °C, 5% CO2 atmosphere in DMEM supplemented with 4.5 g L^−1 of glucose, 10% of fetal bovine serum, 100 U mL^−1 of penicillin, 100 µg mL^−1 of streptomycin and 2 mM of L-glutamine. Caco-2 and STC-1 cells were weekly and twice a week subcultured, respectively. All cells used in this study were between the 40 and the 50 passages for Caco-2 cells and between the 10 and 30 passages for STC-1 cells.
# In situ method using confluent Caco-2 cells described by Caron et al. was slightly modified and used to study DPP-IV activity. A 1 mM (Gly-Pro-AMC) substrate solution, the digests and the synthetic peptides dilutions were prepared in phosphate saline buffer pH 7.4 (PBS). Briefly, after 7 days of growth, Caco-2 cells were trypsinized and seeded at a density of 8000 cells/well in 96-well optical black plates (Nunc, ThermoFisher Scientific, Rochester, NY, USA). After 7 days, culture media were removed from wells and the cells were washed with 100 µL of PBS buffer (pH 7.4). […] After 5 min of incubation at 37 °C, 50 µL of (Gly-Pro-AMC) substrate solution were added to each well. Fluorescence was recorded every 2 min for 1 h at 37 °C using a Xenius XC spectrofluorometer (Safas Monaco, Monaco). Excitation wavelength was set to […] while the emission wavelength was of 480 nm. The percentage of the DPP-IV activity inhibition was defined as the percentage of DPP-IV activity inhibited by a given concentration of digest or diprotin A (commercial DPP-IV peptide inhibitor) as positive control compared with control buffer response. […] IC50 was expressed in mg mL^−1 or in mM.
# T1 sequence (P27487 whole entry): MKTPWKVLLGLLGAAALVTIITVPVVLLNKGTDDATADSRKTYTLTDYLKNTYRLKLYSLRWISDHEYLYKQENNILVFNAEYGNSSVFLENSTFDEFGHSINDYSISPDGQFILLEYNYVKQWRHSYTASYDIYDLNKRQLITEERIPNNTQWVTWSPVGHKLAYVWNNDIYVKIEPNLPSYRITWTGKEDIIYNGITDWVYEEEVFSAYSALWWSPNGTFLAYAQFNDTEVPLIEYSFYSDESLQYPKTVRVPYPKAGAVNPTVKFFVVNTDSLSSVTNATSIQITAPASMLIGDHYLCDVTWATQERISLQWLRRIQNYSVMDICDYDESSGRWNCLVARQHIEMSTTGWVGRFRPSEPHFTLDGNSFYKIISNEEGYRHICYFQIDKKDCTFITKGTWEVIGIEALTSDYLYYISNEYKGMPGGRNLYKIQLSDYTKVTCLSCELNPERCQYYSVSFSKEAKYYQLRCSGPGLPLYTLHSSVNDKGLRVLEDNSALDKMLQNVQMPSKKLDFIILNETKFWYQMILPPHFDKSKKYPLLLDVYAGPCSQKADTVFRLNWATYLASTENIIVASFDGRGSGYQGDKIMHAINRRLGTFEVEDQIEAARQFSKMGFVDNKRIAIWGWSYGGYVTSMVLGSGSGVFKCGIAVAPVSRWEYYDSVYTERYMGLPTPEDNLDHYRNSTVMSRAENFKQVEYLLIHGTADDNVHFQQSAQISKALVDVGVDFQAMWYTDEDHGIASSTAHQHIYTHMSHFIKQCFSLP
row,IC50,Molecule
1,> 2500 µM,CC(C)C[C@H](NC(=O)[C@@H]1CCCN1C(=O)[C@@H](N)CC(=O)O)C(=O)N[C@H](C(=O)O)C(C)C [DPLV] (H-DPLV-OH)
2,> 2500 µM,C[C@@H](O)[C@H](NC(=O)[C@H](CC(=O)O)NC(=O)[C@@H](N)CCC(=O)O)C(=O)N[C@@H](Cc1ccc(O)cc1)C(=O)O [EDTY] (H-EDTY-OH; N-terminus and C-terminus assumed)
3,> 2500 µM,C[C@@H](O)[C@H](NC(=O)[C@H](Cc1ccc(O)cc1)NC(=O)[C@H](CC(=O)O)NC(=O)[C@@H](N)CCC(=O)O)C(=O)O [EDYT] (H-EDYT-OH; N-terminus and C-terminus assumed)
4,> 2500 µM,CC(C)C[C@H](NC(=O)[C@H](CC(=O)O)NC(=O)[C@@H]1CCCN1)C(=O)N[C@H](C(=O)O)C(C)C [PDLV] (H-PDLV-OH)
5,2160 µM,CSSGGY [CSSGGY]
6,> 2500 µM,CSSGK [CSSGK]
7,2270 µM,VAPEEHPT
8,> 2500 µM,VDAGAP [VDAGAP]

# Tested on: DPP-IV
# Test: In vitro (biochemical) DPP-IV inhibitory activity test
# Details: synthetic peptides identified in basolateral side
row,IC50,Molecule
1,> 2500 µM,C[C@@H](O)[C@H](NC(=O)[C@H](CC(=O)O)NC(=O)[C@@H](N)CCC(=O)O)C(=O)N[C@@H](Cc1ccc(O)cc1)C(=O)O [EDTY] (H-EDTY-OH; N-terminus and C-terminus assumed)
2,> 2500 µM,C[C@@H](O)[C@H](NC(=O)[C@H](Cc1ccc(O)cc1)NC(=O)[C@H](CC(=O)O)NC(=O)[C@@H](N)CCC(=O)O)C(=O)O [EDYT] (H-EDYT-OH; N-terminus and C-terminus assumed)
3,603 µM,VADTMEVV

# Tested on: STC-1 cells
# Test: not given
# Parameters: method as in PMID 32516710
# Details: peptides from egg white SGID intestinal digest; cited from earlier work
row,Molecule,CCK secretion stimulation
1,VLLPD,able to stimulate CCK secretion in STC-1 cells
2,VLLPDEVSGL [peptide from egg white SGID intestinal digest],able to stimulate CCK secretion in STC-1 cells

# Tested on: EECs
# Test: not given
# Parameters: method as in PMID 28460928, doi:10.1016/j.jff.2017.06.047
# Details: hemorphins from bovine hemoglobin digestion; cited from earlier work
row,Molecule,CCK secretion stimulation
1,LLVVYPWT [hemorphin released during bovine hemoglobin digestion],CCK and GLP-1 secretion stimulating peptides
2,LVVYPWT [hemorphin released during bovine hemoglobin digestion],CCK and GLP-1 secretion stimulating peptides
3,VVYPWT,CCK and GLP-1 secretion stimulating peptides
4,VVYPWTQRF [hemorphin released during bovine hemoglobin digestion],CCK and GLP-1 secretion stimulating peptides

# Tested on: EECs
# Test: not given
# Details: cited from earlier work
row,Molecule,GLP-1 secretion stimulation
1,AAAA,able to stimulate GLP-1 secretion
2,GGGG,able to stimulate GLP-1 secretion
3,GPVRGPFPIIV [literature GLP-1 stimulating peptide],able to stimulate GLP-1 secretion
4,GWGG,able to stimulate GLP-1 secretion
5,LGG,able to stimulate GLP-1 secretion

# Same assay, conditions: egg white protein digest peptides; cited from earlier work
row,Molecule,GLP-1 secretion stimulation
1,PFL,able to stimulate GLP-1 secretion
2,RVASMASEKM [peptide from egg white protein digest],GLP-1 secretagogue

# Same assay, conditions: hemorphins from bovine hemoglobin digestion; cited from earlier work
row,Molecule,GLP-1 secretion stimulation
1,LLVVYPWT [hemorphin released during bovine hemoglobin digestion],CCK and GLP-1 secretion stimulating peptides
2,LVVYPWT [hemorphin released during bovine hemoglobin digestion],CCK and GLP-1 secretion stimulating peptides
3,VVYPWT,CCK and GLP-1 secretion stimulating peptides
4,VVYPWTQRF [hemorphin released during bovine hemoglobin digestion],CCK and GLP-1 secretion stimulating peptides

# Same assay, conditions: sequences from bovine hemoglobin intestinal digest; cited from earlier work
row,Molecule,GLP-1 secretion stimulation
1,ANVST,able to stimulate the secretion of GLP-1
2,KAAVT,able to stimulate the secretion of GLP-1
3,TKAVEH,able to stimulate the secretion of GLP-1
4,YGAE,able to stimulate the secretion of GLP-1

# Tested on: murine GLUTag cells
# Test: not given
# Parameters: method as in earlier work
# Details: α-actinin-2 sequences; cited from earlier work
row,Molecule,GLP-1 secretion stimulation
1,ASDKPYIL [α-actinin-2 derived peptide],also active
2,KPYIL,able to stimulate the GLP-1 secretion in murine GLUTag cells
